Data: patent US9834550B2, “Pyridopyrimidinone compounds for modulating the catalytic activity of histone lysine demethylases (KDMs)” (Dong-A Socio Holdings Co., Ltd., priority 2014, dated 2017)

What follows are compounds tested against T1, Recombinant human JARID1B/KDM5B (Homo sapiens, UniProt Q9UGL1) (assay: LANCE Ultra TR-FRET demethylase assay with FLAG-tagged JARID1B). Conditions: 100 nM compound; 500 nM biotinylated H3K4me3 peptide substrate.
T1 construct: purchased Active Motif 31432; host or cells: Sf9 insect cells
T1 sequence (Q9UGL1 whole entry): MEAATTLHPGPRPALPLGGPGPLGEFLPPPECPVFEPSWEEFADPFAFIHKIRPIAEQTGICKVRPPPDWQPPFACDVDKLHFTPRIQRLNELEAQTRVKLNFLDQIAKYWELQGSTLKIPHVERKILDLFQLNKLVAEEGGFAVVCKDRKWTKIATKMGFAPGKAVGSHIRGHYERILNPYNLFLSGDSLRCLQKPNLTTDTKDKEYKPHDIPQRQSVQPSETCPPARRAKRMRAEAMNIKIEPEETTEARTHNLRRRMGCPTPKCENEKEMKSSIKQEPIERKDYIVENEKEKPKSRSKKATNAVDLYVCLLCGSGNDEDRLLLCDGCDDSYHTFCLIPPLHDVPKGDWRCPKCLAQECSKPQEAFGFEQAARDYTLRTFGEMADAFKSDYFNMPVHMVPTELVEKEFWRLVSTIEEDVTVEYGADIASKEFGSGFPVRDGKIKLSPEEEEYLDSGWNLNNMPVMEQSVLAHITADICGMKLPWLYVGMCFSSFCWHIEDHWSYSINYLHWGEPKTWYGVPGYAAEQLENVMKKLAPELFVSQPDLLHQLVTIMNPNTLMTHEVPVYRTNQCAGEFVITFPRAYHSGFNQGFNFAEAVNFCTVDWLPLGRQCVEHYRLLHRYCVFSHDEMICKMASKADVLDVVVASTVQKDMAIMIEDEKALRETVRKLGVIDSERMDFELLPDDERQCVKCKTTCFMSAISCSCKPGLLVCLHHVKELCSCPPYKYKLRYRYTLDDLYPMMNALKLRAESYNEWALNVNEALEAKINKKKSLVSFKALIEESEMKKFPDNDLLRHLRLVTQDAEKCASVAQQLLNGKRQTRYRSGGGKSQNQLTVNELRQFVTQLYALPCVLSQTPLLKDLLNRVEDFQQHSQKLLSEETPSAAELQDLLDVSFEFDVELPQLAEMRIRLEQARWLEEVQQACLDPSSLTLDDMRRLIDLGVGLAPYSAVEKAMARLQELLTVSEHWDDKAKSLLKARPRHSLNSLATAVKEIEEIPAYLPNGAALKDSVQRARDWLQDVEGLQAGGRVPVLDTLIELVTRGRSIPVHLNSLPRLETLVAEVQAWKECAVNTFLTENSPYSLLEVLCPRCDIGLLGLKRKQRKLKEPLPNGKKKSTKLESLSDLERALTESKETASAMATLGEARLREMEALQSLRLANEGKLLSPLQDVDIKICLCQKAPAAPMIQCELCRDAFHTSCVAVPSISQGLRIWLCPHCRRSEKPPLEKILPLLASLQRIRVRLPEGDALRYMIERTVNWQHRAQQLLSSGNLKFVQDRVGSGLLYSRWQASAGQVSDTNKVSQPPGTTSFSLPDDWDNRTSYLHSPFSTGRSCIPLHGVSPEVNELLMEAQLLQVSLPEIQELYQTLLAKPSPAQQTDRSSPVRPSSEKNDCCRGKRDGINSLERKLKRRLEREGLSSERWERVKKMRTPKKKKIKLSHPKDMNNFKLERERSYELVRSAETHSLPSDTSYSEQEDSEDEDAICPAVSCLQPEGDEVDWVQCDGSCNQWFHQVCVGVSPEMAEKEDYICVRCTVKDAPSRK
Assay type: biochemical
In short: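 Sf9-expressed N-FLAG full-length JARID1B (10–30 nM) preincubated 5 min with compound at 20, 1 or 0.1 uM (1% DMSO), then 500 nM biotin-H3K4me3 peptide, 500 uM 2-OG, 25 uM Fe(II), 2 mM ascorbate added; 30 min at room temperature in Hepes pH 7.5. H3K4me2/1 product read by TR-FRET 665/590 ratio.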

Row | Compound | inhibition at 0.1 µM
1 | CN(C)C1CCN(C(=O)CNCc2nccc3c(=O)[nH]c(COc4ccc(F)c(Cl)c4)nc23)C1 (stereo not drawn) [Example 237, 2-((3-chloro-4-fluorophenoxy)methyl)-8-(((2-(3-(dimethylamino)pyrrolidin-1-yl)-2-oxoethyl)amino)methyl)pyrido[3,4-d]pyrimidin-4(3H)-one] | > 50%
2 | CN1CCC(CNCc2nccc3c(=O)[nH]c(COc4ccc(F)c(Cl)c4)nc23)C1 (stereo not drawn) [Example 159, 2-((3-chloro-4-fluorophenoxy)methyl)-8-((((1-methylpyrrolidin-3-yl)methyl)amino)methyl)pyrido[3,4-d]pyrimidin-4(3H)-one] | > 50%
3 | C[C@H](Oc1ccc(F)c(Cl)c1)c1nc2c(CNCC3CCNCC3)nccc2c(=O)[nH]1 [Example 219, (S)-2-(1-(3-chloro-4-fluorophenoxy)ethyl)-8-(((piperidin-4-ylmethyl)amino)methyl)pyrido[3,4-d]pyrimidin-4(3H)-one] | 20 to 50%
4 | O=c1[nH]c(COCc2ccccc2)nc2c(CNC[C@H]3CCNC3)nccc12 [Example 204, (S)-2-((benzyloxy)methyl)-8-(((pyrrolidin-3-ylmethyl)amino)methyl)pyrido[3,4-d]pyrimidin-4(3H)-one] | 20 to 50%
5 | O=c1[nH]c(COc2ccc(F)c(Cl)c2)nc2c(CNCCN3CCOCC3)nccc12 [Example 164, 2-((3-chloro-4-fluorophenoxy)methyl)-8-(((2-morpholinoethyl)amino)methyl)pyrido[3,4-d]pyrimidin-4(3H)-one] | 20 to 50%
6 | O=c1[nH]c(COc2ccc(F)c(Cl)c2)nc2c(CNCc3ccncc3)nccc12 [Example 173, 2-((3-chloro-4-fluorophenoxy)methyl)-8-(((pyridin-4-ylmethyl)amino)methyl)pyrido[3,4-d]pyrimidin-4(3H)-one] | 20 to 50%
7 | O=c1[nH]c(COc2ccc(F)c(Cl)c2)nc2c(CNCC3CCOCC3)nccc12 [Example 161, 2-((3-chloro-4-fluorophenoxy)methyl)-8-((((tetrahydro-2H-pyran-4-yl)methyl)amino)methyl)pyrido[3,4-d]pyrimidin-4(3H)-one] | < 20%
8 | O=c1[nH]c(COc2cccc(CNCc3ccccc3)c2)nc2cnccc12 [Example 42, 2-((3-((benzylamino)methyl)phenoxy)methyl)pyrido[3,4-d]pyrimidin-4(3H)-one] | < 20%

Now from value to compound:

Row | inhibition at 0.1 µM | Compound
9 | < 20% | CCN(CC)CCCC(C)NCc1nccc2c(=O)[nH]cnc12 (stereo not drawn) [Example 87, 8-(((5-(diethylamino)pentan-2-yl)amino)methyl)pyrido[3,4-d]pyrimidin-4(3H)-one]
10 | > 50% | O=c1[nH]c(COc2ccc(F)c(Cl)c2)nc2c(CNCC3CNCCO3)nccc12 (stereo not drawn) [Example 167, 2-((3-chloro-4-fluorophenoxy)methyl)-8-(((morpholin-2-ylmethyl)amino)methyl)pyrido[3,4-d]pyrimidin-4(3H)-one]
11 | > 50% | CN1CCC(CNCc2nccc3c(=O)[nH]c(COc4ccc(Cc5ccccc5)cc4)nc23)C1 (stereo not drawn) [Example 144, 2-((4-benzylphenoxy)methyl)-8-((((1-methylpyrrolidin-3-yl)methyl)amino)methyl)pyrido[3,4-d]pyrimidin-4(3H)-one]
12 | > 50% | COCCN1CCC(CNCc2nccc3c(=O)[nH]c(COc4ccc(F)c(Cl)c4)nc23)CC1 [Example 189, 2-((3-chloro-4-fluorophenoxy)methyl)-8-((((1-(2-methoxyethyl)piperidin-4-yl)methyl)amino)methyl)pyrido[3,4-d]pyrimidin-4(3H)-one]
13 | < 20% | COc1cc(OCc2nc3cnccc3c(=O)[nH]2)cc(OC)c1OC [Example 39, 2-((3,4,5-trimethoxyphenoxy)methyl)pyrido[3,4-d]pyrimidin-4(3H)-one]
14 | 20 to 50% | O=C(CNCc1nccc2c(=O)[nH]c(COc3ccc(F)c(Cl)c3)nc12)N1CCCC1 [Example 223, 2-((3-chloro-4-fluorophenoxy)methyl)-8-(((2-oxo-2-(pyrrolidin-1-yl)ethyl)amino)methyl)pyrido[3,4-d]pyrimidin-4(3H)-one]
15 | < 20% | C[C@@H](Oc1ccc(F)c(Cl)c1)c1nc2c(CNCC3CCNCC3)nccc2c(=O)[nH]1 [Example 217, (R)-2-(1-(3-chloro-4-fluorophenoxy)ethyl)-8-(((piperidin-4-ylmethyl)amino)methyl)pyrido[3,4-d]pyrimidin-4(3H)-one]
16 | < 20% | O=c1[nH]c(C2CCCC2)nc2c(CNCC3CCNCC3)nccc12 [Example 191, 2-cyclopentyl-8-(((piperidin-4-ylmethyl)amino)methyl)pyrido[3,4-d]pyrimidin-4(3H)-one]
17 | < 20% | O=c1[nH]c(C2CCc3ccccc3O2)nc2c(CNCC3CCNCC3)nccc12 (stereo not drawn) [Example 199, 2-(chroman-2-yl)-8-(((piperidin-4-ylmethyl)amino)methyl)pyrido[3,4-d]pyrimidin-4(3H)-one]
18 | 20 to 50% | O=c1[nH]c(COc2ccc(F)c(Cl)c2)nc2c(CNCc3ncco3)nccc12 [Example 179, 2-((3-chloro-4-fluorophenoxy)methyl)-8-(((oxazol-2-ylmethyl)amino)methyl)pyrido[3,4-d]pyrimidin-4(3H)-one]
19 | 20 to 50% | O=c1[nH]cnc2c(CNC[C@H]3CCCNC3)nccc12 [Example 99, (S)-8-(((piperidin-3-ylmethyl)amino)methyl)pyrido[3,4-d]pyrimidin-4(3H)-one]
20 | > 50% | O=c1[nH]c(COc2ccc(Cc3ccccc3)cc2)nc2c(CNC[C@H]3CCNC3)nccc12 [Example 150, (S)-2-((4-benzylphenoxy)methyl)-8-(((pyrrolidin-3-ylmethyl)amino)methyl)pyrido[3,4-d]pyrimidin-4(3H)-one]

Each compound was assayed on MDA-MB-231 cell migration (assay: Wound healing assay). Conditions: 24 h treatment; compared to DMSO; FIG. 1.
Assay type: cell-based
Description: Breast cancer cells (MDA-MD-231) were seeded into 12-well plates (2500 cells/well), at bottom of which culture-inserts were implemented. The cells were cultured to subconfluence in RPMI1640 medium supplemented with 0.5% FBS and 100 μg/ml penicillin/streptomycin, and then starved in serum-free media for one day at 37° C. and 5% CO2. The inserts were removed to generate two cell patches separated each other by 0.9 mm of ‘wound fields’. Cultures were then treated with test compounds for 24 h. The results of wound healing assays at indicated time were photographed under microscopy with ×40 magnification after generating the wound fields. […] Similar results were obtained in three independent samples. The cancer cells were stained with 0.1% crystal violet at 24-hours time points.

Row | Compound | MDA-MB-231 cell migration (wound healing)
21 | CCN(CC)CCCC(C)NCc1nccc2c(=O)[nH]cnc12 (stereo not drawn) [Example 87, 8-(((5-(diethylamino)pentan-2-yl)amino)methyl)pyrido[3,4-d]pyrimidin-4(3H)-one] | inactive
22 | CN1CCC(CNCc2nccc3c(=O)[nH]c(COc4ccc(Cc5ccccc5)cc4)nc23)C1 (stereo not drawn) [Example 144, 2-((4-benzylphenoxy)methyl)-8-((((1-methylpyrrolidin-3-yl)methyl)amino)methyl)pyrido[3,4-d]pyrimidin-4(3H)-one] | suppressed MDA-MB-231 cell migration

Each compound was assayed on MDA-MB-231 breast cancer cells (assay: Cell invasion assay (transwell, BME)). Conditions: 10 μM; 24-h incubation; FIG. 2.
Assay type: cell-based
Description: The ability of MDA-MB-231 breast cancer cells to invade into the basement membrane through a layer of BME (Basement Membrane Extract) was determined by using transwell inserts in a 24-well plate. The pore size of membrane was […]. The basement membrane was reconstituted by loading cold BME on top of the polycarbonate filter of the inserts of the transwell plate. After gelation of Matrigel at 37° C., MDA-MB-231 cells were plated into the inserts (1×10^5 cells/0.3 ml/well), and complete media were added to the lower wells (0.5 ml/well). To analyze the effect of 10 μM of compounds No. 87, 167, isonicotinic acid r or SAHA, was present in the cell suspensions. After a 24-h incubation, the noninvasive cells were remained within the inserts while cells that traversed through the BME and the polycarbonate filter were attached to the lower surface of the filter. The penetrated cells were then stained with 0.1% crystal violet.

Row | Compound | MDA-MB-231 breast cancer cell invasion potential
23 | O=c1[nH]c(COc2ccc(F)c(Cl)c2)nc2c(CNCC3CNCCO3)nccc12 (stereo not drawn) [Example 167, 2-((3-chloro-4-fluorophenoxy)methyl)-8-(((morpholin-2-ylmethyl)amino)methyl)pyrido[3,4-d]pyrimidin-4(3H)-one] | decreased the MDA-MB-231 breast cancer cell invasion potential
24 | O=C(CCCCCCC(=O)Nc1ccccc1)NO [SAHA, reference compound] | decreased the MDA-MB-231 breast cancer cell invasion potential
